Source: EP4621028A1, “FLUORESCENCE RECOVERY IN NANOGRAPHENE” (Max-Planck-Gesellschaft zur Förderung der Wissenschaften …, priority 2024, dated 2025)

What was measured:
[1] = Absorption and fluorescence in toluene; format: physicochemical; conditions: for molar extinction coefficient ε: at maximum absorption wavelength
Solubility in water = format: physicochemical; conditions: room temperature
Experimental: In accordance with the present invention, the solubility and particularly the solubility of the compound having the general formula (1) or the general formula (2) in water at 23°C is measured as follows: 1 mg sample is weighed into an Erlenmeyer flask and is then mixed homogeneously with 4 ml of water with a spatula at 23°C. The remaining substance on the spatula is stripped off with a magnetic stirrer bar, which is then added to the Erlenmeyer flask. While stirring with a magnetic stirrer, water is added dropwise with a burette until the solution in the Erlenmeyer flask becomes clear at 23°C. After that, the solubility of compound in water is calculated by calculating the ratio of weighed compound divided by the volume of added water and then by recalculating this ratio to 1 I of water.

| Compound | absorption spectrum and emission spectrum [1] | molar extinction coefficient ε ([1]; in toluene (10^-5 mol/L)) [M⁻¹ cm⁻¹] | other results |
| --- | --- | --- | --- |
| CC(C)[Si](C#Cc1c2cccc3c4ccc5ccc6c(C#C[Si](C(C)C)(C(C)C)C(C)C)c7cccc8c9ccc%10ccc1c1c%10c9c9c(c78)c6c5c4c9c1c23)(C(C)C)C(C)C [Example 6, 6, 14-di(triisopropylsilylethynyl) dibenzo[hi,st]ovalene] | narrow absorption spectrum as well as a narrow emission spectrum | 61511 |  |
| 6,14-didodecyldibenzo[hi,st]ovalene [Example 2] |  | 203000 | fluorescence quantum yield ([1]; in toluene (10^-5 mol/L)): 0.85; maximum absorption wavelength ([1]; in toluene (10^-5 mol/L)): 611 nm |
| N-hexyl fumaric acid imide group substituted 6,14-dimesityldibenzo[hi,st]ovalene [Example 9] | narrow absorption spectrum as well as a narrow emission spectrum |  |  |
| Cc1cccc(C)c1-c1c2cccc3c4ccc5ccc6c(-c7c(C)cccc7C)c7cccc8c9ccc%10ccc1c1c%10c9c9c(c78)c6c5c4c9c1c23 [Example 3, 6, 14-bis(dimethylphenyl)dibenzo[hi,st]ovalene] | narrow absorption spectrum as well as a narrow emission spectrum | 283000 |  |
| COCCOCCOCCOCCOc1cc(-c2ccc3cc4cc5c(-c6c(C)cc(C)cc6C)cc6cc7c(-c8cc(OCCOCCOCCOCCOC)c(OCCOCCOCCOCCOC)c(OCCOCCOCCOCCOC)c8)ccc8cc9cc%10c(-c%11c(C)cc(C)cc%11C)cc%11cc2c3c2c%11c%10c3c9c(c87)c6c5c3c42)cc(OCCOCCOCCOCCOC)c1OCCOCCOCCOCCOC [Example 5, 3,11-bis(3,4,5-tris(2,5,8,11-tetraoxatridecan-13-yloxy)phenyl)-6,14-dimesityldibenzo[hi, st]ovalene] |  |  | solubility of this compound in water (Solubility in water): 100 µg/mL |
| CCCCCCCCCCCCOc1cc(-c2c3cccc4c5ccc6ccc7c(-c8cc(OCCCCCCCCCCCC)c(OCCCCCCCCCCCC)c(OCCCCCCCCCCCC)c8)c8cccc9c%10ccc%11ccc2c2c%11c%10c%10c(c89)c7c6c5c%10c2c34)cc(OCCCCCCCCCCCC)c1OCCCCCCCCCCCC [Example 7, 6,14-bis[3,4,5-tris(dodecoxyl)phenyl]dibenzo[hi,st]ovalene] |  | 385000 |  |
| c1ccc(-c2c3cccc4c5ccc6ccc7c(-c8ccccc8)c8cccc9c%10ccc%11ccc2c2c%11c%10c%10c(c89)c7c6c5c%10c2c34)cc1 [Example 8, 6,14-diphenyldibenzo[hi,st]ovalene] | narrow absorption spectrum as well as a narrow emission spectrum |  |  |
